# Reference: US11401516B2, “Channel modulators” (AUCKLAND UNISERVICES LIMITED, priority 2014, dated 2022)
# How the values were obtained:
# Format in all cases: cell-based, human
# [1] = test system: Cx43 hemichannel and pannexin channel mediated ATP release from hCMVEC cells; experiment: In vitro ischaemia injury-reperfusion ATP assay; details: 2-hour injury then 2-hour reperfusion; 100 μM CBX, 100 μM Peptide5, 1 mM Probenecid, 10 μM Tonabersat
# Experimental: Using an in vitro ischemia injury model, the Cx43 hemichannel and pannexin channel mediated ATP release was differentiated using the connexin hemichannel blocking mimetic peptide5 at 100 μM concentration (S. J. O'Carroll, et al., Cell communication & adhesion 15, 27 (May, 2008)) and 1 mM Probenecid (W. R. Silverman et al., The Journal of biological chemistry 284, 18143 (Jul. 3, 2009)).
# Human cerebral microvascular endothelial cells (hCMVEC) were trypsinised (TrypLE Express, Life technologies) and plated at a density of 0.025×10^6 cells per well in a collagen-coated 12-well plate (1 μg/cm2) a day prior to the experiment. Cells were incubated in culture medium overnight. Hypoxic, acidic, ion-shifted Ringer injury solution that mimics ionic concentrations and acid-base shifts of the interstitial space in hypoxic-ischemic brains (A. Bondarenko, et al., Glia 34, 143 (Apr. 15, 2001)) was used to trigger hemichannel opening. […] ATP concentration in the samples was determined using a Luciferin/luciferase bioluminescence reaction (ATP Determination Kit, Molecular Probes) and detected using a luminescence plate reader (VICTOR X, Perkin Elmer #2030-0010). Standard curves were generated in each experiment from an ATP standard (500 nM) to quantify the concentration of ATP in the test samples. […]
# hCMVEC cells = experiment: MTT assay for cell viability; details: 200 μM, 24-hour treatment
# Experimental: Stock MTT was prepared by dissolving 5 mg in 1 mL PBS producing a concentration of 5 mg/mL. After the treatment incubation period of cells seeded in a 96 well-plate (at 1×10^4 cells/well) the media was removed and replaced with 100 μL of PBS. 10 μL of MTT stock solution was added to each well, except for those that were used as a blank, and left to incubate at 37° C. for 4 hours at which time the solutions was aspirated from each well. Then 50 μL DMSO (Sigma) was added to each well to dissolve the crystalline product. Viability was determined by measuring the absorbance of the purple crystal produced. This was measured by reading the absorbance at 595 nm in a plate reader; the data was standardized to each control as an internal standard. Statistically was investigated using One-way ANOVA and Tukey's post hoc test where *p<0.05.
# [2] = test system: Cx43 mRNA in ARPE-19 cells; experiment: Real-time reverse transcription PCR of Cx43 mRNA; details: 50 μM, 1 h, versus untreated and vehicle controls
# Experimental: In the below Examples 3, 6 and 7 using human retinal epithelial (ARPE-19) cells, the cells were grown in DMEM/F: 12 (Invitrogen), supplemented with 10% fetal calf serum (FCS), 100 units/mL of penicillin, 100 μg/mL of streptomycin, and 0.25 μg/mL of Fungizone® Antimycotic (Invitrogen).
# Real time reverse transcription PCR was used to determine the relative level of Cx43 mRNA. A confluent monolayer of ARPE-19 cells was treated with Tonabersat for 1 hour. Cells were harvested with TRIzol® (Life Technologies), and total RNA was isolated using […] according to manufacturer's instructions. All RNA samples were quantified using a nanodrop 1000 micro volume spectrophotometer (Thermo Scientific). cDNA from samples were synthesised using SuperScript® III First-Strand Synthesis SuperMix (Invitrogen) according to manufacturer's instructions. Primer sequences for hCx43, GenBank Accession No. M65188.1, were obtained from the Harvard Primer bank. […] The appropriate reference gene to be used for relative fold-difference in Cx43 mRNA was determined by screening commonly used house-keeping genes, ß-actin [ACTB], Hypoxanthine phosphoribosyltransferase 1 [HPRT1], peptidylprolyl isomerase A [PPIA], and glyceraldehyde-3-phosphate dehydrogenase [GAPDH]. […] Relative changes in Cx43 mRNA expression were calculated as fold-differences against ß-actin using the 2-ΔΔCt method. […]
smiles,measurement,setting,value
"CC(=O)c1ccc2c(c1)[C@H](NC(=O)c1ccc(F)c(Cl)c1)[C@H](O)C(C)(C)O2 [Tonabersat, N-[(3S,4S)-6-acetyl-3-hydroxy-2,2-dimethyl-3,4-dihydrochromen-4-yl]-3-chloro-4-fluorobenzamide]","ATP release, percentage of the injury-reperfusion (IR) control",[1],68.9±6.9%
same,cell viability,hCMVEC cells,did not significantly reduce cell viability
same,Cx43 mRNA level relative to ß-actin,[2],no significant difference in Cx43 mRNA
